Results on seven compounds are retold here after PMC8657793, “Synthesis, In Vitro and In Silico Anticancer Activity of New 4-Methylbenzamide Derivatives Containing 2,6-Substituted Purines as Potential Protein Kinases Inhibitors” (International Journal of Molecular Sciences, 2021).

The target in one data set is T1, EGFR (Homo sapiens, UniProt P00533).
T1 construct: purchased Promega
The experiment in a line: Kinase Selectivity Profiling System TK-1 / ADP-Glo, EGFR. The class given is biochemical. Here is the method: (§1) At the end, 10 μL of kinase detection reagent was added into the well and incubated for 30 min to produce a luminescence signal.

For the next data set, the target named is T2, KDR (VEGFR-2) (Homo sapiens, UniProt P35968).
T2 construct: purchased Promega
The experiment in a line: Kinase Selectivity Profiling System TK-1 / ADP-Glo, KDR. Type of data set: biochemical. Here is the method:
as §1

The next data set addresses T3, PDGFRβ (Homo sapiens, UniProt P09619).
T3 construct: purchased Promega
The experiment in a line: Kinase Selectivity Profiling System TK-1 / ADP-Glo, PDGFRβ. The class given is biochemical. Here is the method: as §1

A further data set deals with T4, HER4 (Homo sapiens, UniProt Q15303).
T4 construct: purchased Promega
The experiment in a line: Kinase Selectivity Profiling System TK-1 / ADP-Glo, HER4. The class given is biochemical. Here is the method:
as §1

The next data set concerns the target T5, HER2 (Homo sapiens, UniProt P04626).
T5 construct: purchased Promega
The experiment in a line: Kinase Selectivity Profiling System TK-1 / ADP-Glo, HER2. The class given is biochemical. Here is the method: as §1

The target of the next data set is T6, Bcr–Abl1 kinase (Homo sapiens, UniProt P00519).
T6 construct: purchased Promega
The experiment in a line: Abl1 Kinase Enzyme System / ADP-Glo kinase assay. The class given is biochemical. The following applies: ATP 50 μM; for inhibition at 0.5 µM: 0.5 µM compound; for inhibition at 10 µM: 10 µM compound. Here is the method:
as §1

Another data set addresses T7, InsR (Homo sapiens, UniProt P06213).
T7 construct: purchased Promega
The experiment in a line: Kinase Selectivity Profiling System TK-1 / ADP-Glo, InsR. Type of data set: biochemical. Here is the method:
as §1

A further data set concerns the target T8, IGF1R (Homo sapiens, UniProt P08069).
T8 construct: purchased Promega
The experiment in a line: Kinase Selectivity Profiling System TK-1 / ADP-Glo, IGF1R. Type of data set: biochemical. On the procedure:
as §1

The target in a further data set is T9, PDGFRα (Homo sapiens, UniProt P16234).
T9 construct: purchased Promega
The experiment in a line: Kinase Selectivity Profiling System TK-1 / ADP-Glo, PDGFRα. Type of data set: biochemical. The source says: Considering the presence of a purine ring in the compounds under study, type 1 binding to protein kinases could be expected. We investigated the kinase selectivity of targeted compounds 7–16 against eight receptor tyrosine kinases including EGFR, HER2 and HER4 (epidermal growth factor receptors), IGF1R (insulin-like growth factor 1 receptor), InsR (insulin receptor), KDR (vascular endothelial growth factor receptor 2—VEGFR-2), and PDGFRα and PDGFRβ (platelet-derived growth factor receptors). The assay was performed using the Kinase Selectivity Profiling System TK-1 (Promega, Madison, WI, USA) and ADP-Glo™ Kinase assay kit (Promega, Madison, WI, USA). Kinase activity was measured by quantifying the […] following a kinase reaction. Enzymatic activity inhibition percentage caused by studied compounds was evaluated at the single concentration of 1 μM.
The Abl1 inhibitory activity assay was performed using Abl1 Kinase Enzyme System (Promega, Madison, WI, USA) and ADP-Glo™ Kinase assay kit (Promega, Madison, WI, USA) according to the Technical Manual. The general procedure was as follows: kinase (2.5 ng/reaction) was incubated with substrate (1 μg), compound (0.5 and 10µM) and ATP (50 μM) in a commercial buffer solution with a reaction volume of 5 μL. In every experiment, no-enzyme and no-compound control reactions were included to represent background luminescence (0% activity) and uninhibited kinase activity (100% activity), respectively. The assay 384-well plate was incubated at room temperature for 1 h. Afterwards, 5μL of ADP-Glo reagent was added into each well to stop the reaction and consume the […] within 40 min. At the end, 10 μL of kinase detection reagent was added into the well and incubated for 30 min to produce a luminescence signal. Kinase activity assays were performed in triplicate at each inhibitor concentration. The luminescence was measured with the help of a Tecan Infinite M200 Plate Reader. The luminescence data were analyzed using the computer software, Magellan™. Percent kinase activity (KA) was calculated by subtracting the average no-enzyme control luminescence values from all kinase-containing reactions with or without compound, then converting these net luminescence values to percent activity based on the no-compound control reactions representing 100% kinase activity. Inhibition (I, %) was calculated as 100%-KA.
The single-dose screening of kinase selectivity was performed using Kinase Selectivity Profiling System TK-1 (Promega, Madison, WI, USA) and ADP-Glo™ Kinase assay kit (Promega, Madison, WI, USA) according to Technical Manual. Kinase Selectivity Profiling System TK-1 includes a set of kinases from the tyrosine kinase family (EGFR, HER2, HER4, IGF1R, InsR, KDR, PDGFα, PDGFβ) in 8-tube strip format. The general procedure was as follow: kinase working stock (2 µL/reaction) was incubated with ATP/substrate working stock (1 µL) and compound (1 µM) in a commercial buffer solution with a reaction volume of 5 μL. The reaction conditions and inhibition (%) calculation were the same as in Section 3.3.1. Kinase activity assays were performed in duplicate at each inhibitor.

Data set [1] relates to RPMI 1788 (B lymphocyte, normal human lymphoblastoid cells). The experiment in a line: MTT assay on normal cells RPMI 1788. Type of data set: cell-based. On the procedure:
To determine the selectivity of the synthesized compounds 7–16 toward various cancer cells and normal human cells, the anti-proliferative activity against K562 (chronic myelogenous leukemia), HL-60 (promyelocytic leukemia), MCF-7 (breast adenocarcinoma), HeLa (cervix carcinoma), HepG2 (human liver cancer), A549 (lung carcinoma), OKP-GS (renal cell carcinoma), and normal cells RPMI 1788 (B lymphocyte, the human cell line) was investigated.
Each in vitro experiment was performed at least in triplicate and the standard deviation of absorbance was less than 10% of the mean. For the in vitro assays, a stock solution (1% DMSO in the appropriate buffer with the tested compound diluted under sonication) was prepared from which several dilutions were made with the appropriate buffer.
Human cell lines were obtained from the Institute of Cytology, Russian Academy of Sciences. The cell lines studied were maintained in RPMI 1640 medium (AppliChem, Darmstadt, Germany) supplemented with 20% (HL-60, RPMI 1788) fetal calf serum (HyClone, Cramlington, UK), in DMEM (A 549) and Eagle’s MEM (AppliChem) (MCF7, HeLa) with 10% fetal calf serum (HyClone). Cells were cultivated at 37 °C in a humidified atmosphere of 5% CO2. Cellular sensitivities to synthesized compounds and standards were measured with the MTT assay. Cells were plated in triplicate in 96-well plates (10^5 cells/well for suspended cell cultures and 5 × 10^3 cells/well for monolayer cultures); on the same day (suspended cell cultures) or on the following day (monolayer cultures), compounds were added at the appropriate dilutions. […] The reference drugs were imatinib, sorafenib and nilotinib. Plates were incubated under standard conditions for 48 h. Thereafter, 10 μL MTT (Sigma) in phosphate-buffered saline (5 mg/mL) was added. The plates were incubated for an additional 4 h and 150 μL dimethylsulphoxide (DMSO) was added to dissolve the formazan crystals. The optical density was read on a HALO MPR-95 Microplate Reader (Dynamica Scientific Ltd., Melbourne, Victoria, Australia) at 570 nm. The antiproliferative effects were taken as degrees of inhibition of tumor cells (%). The average of three parallel measurements was calculated for each concentration of test compound. The degree of cell growth suppression was plotted as a function of the logarithm of the concentration. The half maximal inhibitory concentration (IC50) was determined graphically for active compounds.

Data set [2] relates to HL-60 (promyelocytic leukemia). The experiment in a line: MTT anti-proliferative assay, HL-60. The class given is cell-based. Particulars: Homo sapiens, 48 h. Here is the method:
For the in vitro assays, a stock solution (1% DMSO in the appropriate buffer with the tested compound diluted under sonication) was prepared from which several dilutions were made with the appropriate buffer.
Human cell lines were obtained from the Institute of Cytology, Russian Academy of Sciences. […] Plates were incubated under standard conditions for 48 h.

T5 sequence (P04626 23-1255): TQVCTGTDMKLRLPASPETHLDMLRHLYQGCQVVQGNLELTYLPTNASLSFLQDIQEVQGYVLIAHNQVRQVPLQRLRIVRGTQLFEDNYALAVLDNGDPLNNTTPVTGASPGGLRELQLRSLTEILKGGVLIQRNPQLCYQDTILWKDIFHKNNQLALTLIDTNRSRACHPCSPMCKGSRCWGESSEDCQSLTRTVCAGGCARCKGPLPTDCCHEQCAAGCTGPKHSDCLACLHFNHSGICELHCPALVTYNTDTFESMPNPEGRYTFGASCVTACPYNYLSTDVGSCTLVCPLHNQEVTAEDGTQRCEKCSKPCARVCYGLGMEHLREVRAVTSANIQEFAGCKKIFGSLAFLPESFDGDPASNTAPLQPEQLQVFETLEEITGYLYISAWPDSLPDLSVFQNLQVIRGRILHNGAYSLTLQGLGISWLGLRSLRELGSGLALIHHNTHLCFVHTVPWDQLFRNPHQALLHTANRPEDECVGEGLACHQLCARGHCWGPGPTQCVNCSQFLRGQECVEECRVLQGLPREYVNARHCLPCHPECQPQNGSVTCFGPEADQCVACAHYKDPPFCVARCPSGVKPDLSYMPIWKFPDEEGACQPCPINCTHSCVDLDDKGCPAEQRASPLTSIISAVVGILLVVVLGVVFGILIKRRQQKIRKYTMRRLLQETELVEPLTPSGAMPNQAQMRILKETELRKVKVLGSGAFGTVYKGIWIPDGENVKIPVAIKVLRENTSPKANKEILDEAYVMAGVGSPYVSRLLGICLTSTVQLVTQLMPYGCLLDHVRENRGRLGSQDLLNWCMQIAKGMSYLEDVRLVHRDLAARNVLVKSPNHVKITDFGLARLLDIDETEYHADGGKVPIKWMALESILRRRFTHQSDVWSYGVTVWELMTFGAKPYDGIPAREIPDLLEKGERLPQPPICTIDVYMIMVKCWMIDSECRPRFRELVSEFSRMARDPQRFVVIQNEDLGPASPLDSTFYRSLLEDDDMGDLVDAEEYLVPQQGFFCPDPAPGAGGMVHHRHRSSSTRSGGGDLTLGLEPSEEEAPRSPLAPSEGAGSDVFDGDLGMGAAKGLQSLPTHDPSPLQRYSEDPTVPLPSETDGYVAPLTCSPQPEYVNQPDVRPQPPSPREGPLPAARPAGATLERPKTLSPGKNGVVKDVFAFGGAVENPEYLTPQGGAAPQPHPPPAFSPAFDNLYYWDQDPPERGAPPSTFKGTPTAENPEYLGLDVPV
T9 sequence (P16234 24-1089): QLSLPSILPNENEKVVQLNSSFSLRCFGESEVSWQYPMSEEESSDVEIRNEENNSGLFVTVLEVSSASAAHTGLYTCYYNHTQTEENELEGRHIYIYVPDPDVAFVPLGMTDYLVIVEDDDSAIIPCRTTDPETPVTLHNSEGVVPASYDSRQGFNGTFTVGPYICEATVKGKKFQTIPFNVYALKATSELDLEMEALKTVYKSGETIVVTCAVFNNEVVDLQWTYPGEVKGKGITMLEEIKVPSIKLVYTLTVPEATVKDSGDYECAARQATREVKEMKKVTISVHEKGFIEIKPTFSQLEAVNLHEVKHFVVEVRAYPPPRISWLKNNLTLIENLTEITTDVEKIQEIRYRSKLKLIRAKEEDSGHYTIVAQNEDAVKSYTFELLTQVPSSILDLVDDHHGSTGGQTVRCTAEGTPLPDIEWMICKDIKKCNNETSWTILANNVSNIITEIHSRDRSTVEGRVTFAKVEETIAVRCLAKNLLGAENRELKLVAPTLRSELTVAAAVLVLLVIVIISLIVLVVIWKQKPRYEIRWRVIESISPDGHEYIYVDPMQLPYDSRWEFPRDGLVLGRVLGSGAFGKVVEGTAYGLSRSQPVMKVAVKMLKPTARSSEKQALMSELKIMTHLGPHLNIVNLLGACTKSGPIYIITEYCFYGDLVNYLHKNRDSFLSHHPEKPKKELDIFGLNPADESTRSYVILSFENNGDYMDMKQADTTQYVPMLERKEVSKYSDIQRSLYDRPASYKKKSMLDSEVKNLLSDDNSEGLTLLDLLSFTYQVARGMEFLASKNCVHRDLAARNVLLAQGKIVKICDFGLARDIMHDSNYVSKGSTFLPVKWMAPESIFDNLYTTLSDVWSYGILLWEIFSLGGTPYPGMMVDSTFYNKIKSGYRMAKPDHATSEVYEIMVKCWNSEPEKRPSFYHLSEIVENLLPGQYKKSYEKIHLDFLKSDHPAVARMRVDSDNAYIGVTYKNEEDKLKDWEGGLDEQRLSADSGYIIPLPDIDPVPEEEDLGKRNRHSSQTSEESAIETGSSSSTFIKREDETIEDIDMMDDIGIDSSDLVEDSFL
T8 sequence (P08069 31-1367): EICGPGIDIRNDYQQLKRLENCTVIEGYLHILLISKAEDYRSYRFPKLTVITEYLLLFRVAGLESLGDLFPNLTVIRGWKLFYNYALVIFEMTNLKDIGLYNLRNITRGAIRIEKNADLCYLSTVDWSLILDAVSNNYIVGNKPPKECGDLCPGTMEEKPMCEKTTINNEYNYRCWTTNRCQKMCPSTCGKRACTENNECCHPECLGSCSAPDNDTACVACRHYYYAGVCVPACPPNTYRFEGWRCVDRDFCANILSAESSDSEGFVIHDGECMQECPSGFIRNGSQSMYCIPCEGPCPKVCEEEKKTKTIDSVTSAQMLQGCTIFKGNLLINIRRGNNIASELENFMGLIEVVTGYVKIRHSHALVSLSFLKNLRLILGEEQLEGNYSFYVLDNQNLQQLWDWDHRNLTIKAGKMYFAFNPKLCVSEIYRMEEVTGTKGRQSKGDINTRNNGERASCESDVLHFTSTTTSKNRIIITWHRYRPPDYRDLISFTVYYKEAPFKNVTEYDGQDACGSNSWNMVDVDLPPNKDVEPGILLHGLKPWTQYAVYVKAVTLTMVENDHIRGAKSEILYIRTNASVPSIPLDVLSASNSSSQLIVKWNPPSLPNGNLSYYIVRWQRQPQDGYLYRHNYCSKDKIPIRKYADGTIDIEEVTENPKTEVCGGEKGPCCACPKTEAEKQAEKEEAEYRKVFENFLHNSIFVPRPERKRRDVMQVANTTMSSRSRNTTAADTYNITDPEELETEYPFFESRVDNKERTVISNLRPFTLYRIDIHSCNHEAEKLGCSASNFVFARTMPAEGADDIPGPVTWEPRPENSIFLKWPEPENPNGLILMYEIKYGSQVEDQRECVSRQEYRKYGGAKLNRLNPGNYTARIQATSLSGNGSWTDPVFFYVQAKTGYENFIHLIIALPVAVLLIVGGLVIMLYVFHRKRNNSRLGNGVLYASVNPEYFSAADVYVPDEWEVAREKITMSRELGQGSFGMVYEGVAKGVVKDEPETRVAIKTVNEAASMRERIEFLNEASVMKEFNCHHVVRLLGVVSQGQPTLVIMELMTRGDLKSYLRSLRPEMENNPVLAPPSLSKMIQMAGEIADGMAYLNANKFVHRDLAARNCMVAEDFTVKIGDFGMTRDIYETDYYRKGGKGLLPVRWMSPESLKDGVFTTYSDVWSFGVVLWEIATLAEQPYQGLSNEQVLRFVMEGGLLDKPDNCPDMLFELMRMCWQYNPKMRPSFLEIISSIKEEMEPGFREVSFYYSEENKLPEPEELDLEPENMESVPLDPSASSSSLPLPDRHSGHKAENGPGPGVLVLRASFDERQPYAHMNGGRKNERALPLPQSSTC
T3 sequence (P09619 33-1106): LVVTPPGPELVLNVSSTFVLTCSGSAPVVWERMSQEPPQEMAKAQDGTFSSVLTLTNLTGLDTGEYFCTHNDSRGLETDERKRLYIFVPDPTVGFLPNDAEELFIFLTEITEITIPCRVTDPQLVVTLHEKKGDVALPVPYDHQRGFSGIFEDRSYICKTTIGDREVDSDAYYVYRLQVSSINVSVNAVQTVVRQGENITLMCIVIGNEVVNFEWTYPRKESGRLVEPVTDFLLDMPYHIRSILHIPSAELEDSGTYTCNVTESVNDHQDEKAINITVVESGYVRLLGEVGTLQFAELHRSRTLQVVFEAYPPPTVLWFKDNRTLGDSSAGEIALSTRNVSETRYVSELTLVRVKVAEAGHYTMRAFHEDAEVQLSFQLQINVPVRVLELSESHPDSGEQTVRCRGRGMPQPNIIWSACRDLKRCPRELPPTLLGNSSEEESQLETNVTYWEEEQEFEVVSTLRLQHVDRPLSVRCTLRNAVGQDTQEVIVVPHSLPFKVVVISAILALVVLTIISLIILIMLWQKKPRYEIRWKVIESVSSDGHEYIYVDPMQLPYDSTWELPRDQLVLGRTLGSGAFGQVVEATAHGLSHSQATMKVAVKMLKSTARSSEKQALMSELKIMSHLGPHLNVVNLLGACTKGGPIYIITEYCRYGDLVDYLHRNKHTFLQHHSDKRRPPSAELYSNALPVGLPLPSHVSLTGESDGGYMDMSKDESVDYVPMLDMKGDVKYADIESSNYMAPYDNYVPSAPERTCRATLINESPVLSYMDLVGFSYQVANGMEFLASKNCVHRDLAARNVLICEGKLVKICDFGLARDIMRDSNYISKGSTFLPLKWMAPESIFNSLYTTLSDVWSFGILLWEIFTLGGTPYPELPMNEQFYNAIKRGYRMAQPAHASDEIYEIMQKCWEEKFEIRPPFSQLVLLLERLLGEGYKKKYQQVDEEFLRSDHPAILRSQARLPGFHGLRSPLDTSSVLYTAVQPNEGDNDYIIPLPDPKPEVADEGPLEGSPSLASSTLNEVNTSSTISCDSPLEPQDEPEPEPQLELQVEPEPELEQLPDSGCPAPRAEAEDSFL

For `Nc1ncnc2c1ncn2Cc1ccc(C(=O)Nc2cccc(C(F)(F)F)c2)cc1` [Compound 9, 4-((6-Amino-9H-purin-9-yl)methyl)-N-(3-(trifluoromethyl)phenyl)benzamide], the inhibition at 1 µM against EGFR came to 11%; against KDR (VEGFR-2), 2%; at PDGFRβ it was 36%; against HER4, 0%; on HER2, 0%; against InsR, 0%. For the same compound, the inhibition at 1 µM amounted to 0% at IGF1R and 45% on PDGFRα. This compound also came in with an inhibition at 0.5 µM against Bcr–Abl1 kinase of 39%. The same compound showed an inhibition at 10 µM on Bcr–Abl1 kinase of 34%. This compound also came in with an inhibition at 100 µM in [1] of 56.8%.

In the case of `Cc1cn(-c2cc(NC(=O)c3ccc(Cn4cnc5c(N)nc(F)nc54)cc3)cc(C(F)(F)F)c2)cn1` [Compound 11, 4-((6-Amino-2-fluoro-9H-purin-9-yl)methyl)-N-(3-(4-methyl-1H-imidazol-1-yl)-5-(trifluoromethyl)phenyl)benzamide], the melting point fell in the range of 230 to 232 °C. At EGFR, this compound returned an inhibition at 1 µM of 14%. The same compound registered an inhibition at 1 µM at KDR (VEGFR-2) of 12%. This compound gave an IC50 in data set [2] of 29.7 ± 1.19 µM. In addition, the inhibition at 1 µM against PDGFRβ came out at 0%. The inhibition at 1 µM against HER4 was determined as 0%. Moreover, at 1 µM the inhibition against HER2 was 0%. On Bcr–Abl1 kinase, this compound showed an inhibition at 0.5 µM of 37% and an inhibition at 10 µM of 37%. Moreover, on InsR, 1 µM produced 0% inhibition. The inhibition at 1 µM against IGF1R worked out at 0%. This compound showed an inhibition at 1 µM at PDGFRα of 4%. Besides, in data set [1], the inhibition at 100 µM is 93.4%.

Turning to `Cc1cn(-c2cc(NC(=O)c3ccc(Cn4cnc5c(N)nc(Cl)nc54)cc3)cc(C(F)(F)F)c2)cn1` [Compound 16, 4-((6-Amino-2-chloro-9H-purin-9-yl)methyl)-N-(3-(4-methyl-1H-imidazol-1-yl)-5-(trifluoromethyl)phenyl)benzamide], the inhibition at 1 µM against EGFR was determined as 13%; on KDR (VEGFR-2) it was 12%; on PDGFRβ it was 6%; on HER4, 0%; at HER2, 0%; on InsR, 0%. The inhibition at 1 µM was 0% against IGF1R and 17% against PDGFRα. For the same compound, at Bcr–Abl1 kinase, the inhibition at 0.5 µM was 15%. In addition, on Bcr–Abl1 kinase, testing at 10 µM gave an inhibition of 36%. In [1], this compound came in with an inhibition at 100 µM of 5.91%.

`CS(=O)(=O)CCNCc1ccc(-c2ccc3ncnc(Nc4ccc(OCc5cccc(F)c5)c(Cl)c4)c3c2)o1` [Lapatinib, lapatinib, reference compound]: the inhibition at 1 µM against PDGFRβ amounted to 7%; against HER4 it was 94%; against HER2, 68%; against InsR, 0%; on IGF1R, 0%; on PDGFRα, 4%.

The compound `Nc1nc(F)nc2c1ncn2Cc1ccc(C(=O)Nc2cccc(C(F)(F)F)c2)cc1` [Compound 8, 4-((6-Amino-2-fluoro-9H-purin-9-yl)methyl)-N-(3-(trifluoromethyl)phenyl)benzamide] returned a melting point of 309 to 311 °C. The same compound yielded an inhibition at 1 µM at EGFR of 15%. In addition, on KDR (VEGFR-2), the inhibition at 1 µM is 14%. In data set [2], this compound had an IC50 of over 50 µM. Further, the inhibition at 1 µM against PDGFRβ worked out at 32%. The inhibition at 1 µM on HER4 came out at 23%. For the same compound, on HER2, the “% Inhibition at 1 µM, HER2” value was 26% and the inhibition at 1 µM lay within 22 to 26%. Also, on Bcr–Abl1 kinase, the inhibition at 0.5 µM was determined as 23% and the inhibition at 10 µM worked out at 34%. The inhibition at 1 µM against InsR was found to be 0%. The inhibition at 1 µM at IGF1R amounted to 5%. The compound also displayed an inhibition at 1 µM against PDGFRα of 13%. Also, at 100 µM the inhibition in data set [1] was 33.5%.

As for `Cc1cn(-c2cc(NC(=O)c3ccc(Cn4cnc5c(N)ncnc54)cc3)cc(C(F)(F)F)c2)cn1` [Compound 12, 4-((6-Amino-9H-purin-9-yl)methyl)-N-(3-(4-methyl-1H-imidazol-1-yl)-5-(trifluoromethyl)phenyl) benzamide], the melting point was 268 to 270 °C. Testing at 1 µM at EGFR gave an inhibition of 17%. This compound yielded an inhibition at 1 µM at KDR (VEGFR-2) of 0%. This compound also yielded an inhibition at 1 µM against PDGFRβ of 36%. Besides, the inhibition at 1 µM against HER4 worked out at 0%. This compound also gave an inhibition at 1 µM on HER2 of 0%. For the same compound, at Bcr–Abl1 kinase, the inhibition at 0.5 µM was 38% and at 10 µM the inhibition was 14%. Testing at 1 µM at InsR gave an inhibition of 0%. Moreover, the inhibition at 1 µM at IGF1R amounted to 0%. Besides, the inhibition at 1 µM against PDGFRα came out at 22%.

As to `Cc1ccc(NC(=O)c2ccc(CN3CCN(C)CC3)cc2)cc1Nc1nccc(-c2cccnc2)n1` [Imatinib, imatinib, reference compound], in [1], the inhibition at 100 µM came out at 99%.
